Data as given in patent US4968713A, “Certain imidazole compounds as transglutaminase inhibitors” (Merck & Co., Inc., priority 1989, dated 1990).
Where a name gives a salt, the structure may show the parent alone. Blank lines part the entries; values can stand above or below the compound they belong to.

Molecular target: T1, Factor XIIIa (Homo sapiens, UniProt P00488)
T1 construct: from tissue; host or cells: human plasma
T1 sequence (P00488 39-732 limits assumed): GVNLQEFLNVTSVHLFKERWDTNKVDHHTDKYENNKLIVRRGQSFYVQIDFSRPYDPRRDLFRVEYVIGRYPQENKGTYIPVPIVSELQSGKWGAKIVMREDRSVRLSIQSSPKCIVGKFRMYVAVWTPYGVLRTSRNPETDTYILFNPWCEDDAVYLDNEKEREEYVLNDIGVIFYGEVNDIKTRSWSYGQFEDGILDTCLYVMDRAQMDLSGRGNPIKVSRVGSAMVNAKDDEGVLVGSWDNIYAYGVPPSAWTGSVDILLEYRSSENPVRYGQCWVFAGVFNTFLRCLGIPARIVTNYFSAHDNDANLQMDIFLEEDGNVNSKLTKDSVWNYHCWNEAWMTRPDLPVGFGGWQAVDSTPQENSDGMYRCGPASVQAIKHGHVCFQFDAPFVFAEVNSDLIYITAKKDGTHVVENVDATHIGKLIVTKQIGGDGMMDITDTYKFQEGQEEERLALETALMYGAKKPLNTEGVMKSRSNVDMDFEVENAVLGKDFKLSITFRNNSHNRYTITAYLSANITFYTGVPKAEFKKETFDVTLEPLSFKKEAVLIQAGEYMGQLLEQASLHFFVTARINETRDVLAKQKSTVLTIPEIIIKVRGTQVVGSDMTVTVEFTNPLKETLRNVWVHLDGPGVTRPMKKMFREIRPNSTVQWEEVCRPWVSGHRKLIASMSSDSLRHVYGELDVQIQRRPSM
Experiment: Factor XIIIa inhibitor assay (incorporation of 14C-putrescine into casein)
Assay type: biochemical
Conditions: for inhibition at 0.1 µM: @ 100 nM
Protocol: The Factor XIIIa inhibitor assay is based on the incorporation of ^14 C-putrescine into casein catalyzed by Factor XIIIa. The assay is carried out employing the procedure described in Methods in Enzymology, Vol. 45, Ch 15., pages 177-191 (1976) and using Factor XIII (F XIII) isolated from human plasma. The procedure is summarized briefly and schematically illustrated as follows: [drawing 9] Factor XIII assay mixtures are prepared by adding stepwise, appropriately prepared solutions of thrombin and dithiothreitol (DTT) to a mixture comprising Factor XIII at 140 μg/mL in glycerol/water and tris(hydroxymethyl)aminomethane hydrochloride (Tris.HCl). To a portion of the mixture is added calcium chloride as source of calcium ions required for enzyme activity and to the remaining mixture is added, instead of calcium ions, ethylenediaminetetraacetic acid (EDTA) which serves as a blank for background. A substrate mixture is prepared from ^14 C-putrescine and N,N-dimethylcasein. The assay tubes and control tubes are charged with the substrate mixture and incubated at 37° C. for 20 minutes. Samples are withdrawn from each tube, spotted onto a filter disk which is then immersed in ice cold trichloroacetic acid solution to precipitate the casein on the filter. The filter is then washed to remove unincorporated or free ^14 C-putrescine and after drying is counted for ^14 C-putrescine incorporated to casein from which percent activity and/or inhibition can be calculated.

[1] = read-out: Percent inhibition (Molar concn)

SMILES: CC(=O)CSc1n(C)c(C)c[n+]1C [H, CH3, CH3, H, CH3, CF3 SO3^-, 1,3,5-Trimethyl-2[(2-oxopropyl)thio]imidazolium trifluoromethylsulfonate]
- inhibition at 0.1 µM [1]: 90%

SMILES: CCCc1c(CCC)[n+](C)c(SCC(C)=O)n1C [H, CH3, C3 H7, C3 H7, CH3, CF3 SO3^-, 1,3-Dimethyl-4,5-di(n-propyl)-2-[(2-oxopropyl)thio]imidazolium trifluoromethylsulfonate]
- inhibition at 0.1 µM [1]: 86%

SMILES: CC(=O)CSc1ncc(C)n1C [H, CH3, CH3, H, --, HCl, 1,5-Dimethyl-2[(2-oxopropyl)thio]imidazole]
- inhibition at 2 µM (@ 2 μM, read-out: Percent inhibition (Molar concn)): 47%

SMILES: CC(=O)CSc1nc(C)c(C)n1C [H, CH3, CH3, CH3, --, HCl, 1,4,5-Trimethyl-2[(2-oxopropyl)thio]imidazole]
- inhibition at 3.7 µM (@ 3.7 μM, read-out: Percent inhibition (Molar concn)): 76%

SMILES: CCC(=O)CSc1n(C)c(C)c(C)[n+]1C [CH3, CH3, CH3, CH3, CH3, CF3 SO3^-]
- inhibition at 0.1 µM [1]: 93%

SMILES: CC(=O)CSc1n(C)c(C)c(C)[n+]1C [H, CH3, CH3, CH3, CH3, CF3 SO3^-, 1,3,4,5-tetramethyl-2[(2-oxopropyl)thio]imidazolium trifluoromethylsulfonate]
- inhibition at 0.08 µM (@ 80 nM, read-out: Percent inhibition (Molar concn)): 95%

SMILES: CC(=O)CSc1n(C)c(C)c(C)[n+]1C.[Cl-] [H, CH3, CH3, CH3, CH3, Cl^-, 1,3,4,5-Tetramethyl-2[(2-oxopropyl)thio]imidazolium chloride]
- Percent inhibition (Molar concn) (@ 80 nM): 95%

SMILES: CCCc1nc(SCC(C)=O)n(C)c1C [H, CH3, CH3, C3 H7, --, HCl]
- inhibition at 4 µM (@ 4 μM, read-out: Percent inhibition (Molar concn)): 46%

Next, values leading:

- inhibition at 0.313 µM (@ 313 nM, read-out: Percent inhibition (Molar concn)): 67%
SMILES: CC(=O)CSc1n(C)cc[n+]1C [H, CH3, H, H, CH3, Cl^-]

- inhibition at 1 µM (@ 1.0 μM, read-out: Percent inhibition (Molar concn)): 44%
SMILES: CC(=O)CSc1n(C)c(C(C)C)c(C(C)C)[n+]1C [H, CH3, iPr, iPr, CH3, CF3 SO3^-]

- inhibition at 0.11 µM (@ 110 nM, read-out: Percent inhibition (Molar concn)): 44%
SMILES: CC(=O)CSc1n(C)cc[n+]1C [H, CH3, H, H, CH3, I^-]

- inhibition at 0.15 µM (@ 0.15 μM, read-out: Percent inhibition (Molar concn)): 40%
SMILES: CC(=O)CSc1nccn1C [H, CH3, H, H, --, --]
